Results published in a melting point compilation (Tetko et al.; mined from patent text by program, amines drawn as free bases though some values may be those of a salt).

Row | melting point | Compound
1 | 63 °C | CN1CCCC1=Cc1ccc(Cl)cc1
2 | 118 to 125 °C | N#Cc1cnc2cc(-c3cc(CN4CCOCC4)c(CN4CCOCC4)s3)ccc2c1Nc1ccc(Cl)cc1Cl
3 | 173 to 174 °C | O=Cc1ccc(-c2ccc(-c3ccc(C=O)o3)cc2)cc1
4 | 143 to 144 °C | CCOC(=O)c1c(S(C)(=O)=O)c(N=O)c2ccccn12
5 | 129 to 132 °C | CCCCCCCCOC(=S)c1cc(C(C)(C)C)c(OC(=O)c2cc(C(C)(C)C)c(O)c(C(C)(C)C)c2)c(C(C)(C)C)c1
6 | 225 °C | CC(=O)Nc1cccc(OCc2cc([N+](=O)[O-])ccc2C(=O)O)c1
7 | 212 to 214 °C | O=C(NC(=S)NC1CCN(Cc2ccc3ccccc3c2)CC1)c1ccccc1
8 | 202 to 203 °C | CN(C1CCN(CCC(F)(F)F)CC1)S(=O)(=O)c1ccc(Nc2nccc(Nc3ccc(F)c(F)c3)n2)cc1
9 | 72 °C | Nc1ccc(C(=O)CCCCOCc2ccccc2)cc1
10 | 127 to 129 °C | COC(=O)c1ccc(F)c(S(N)(=O)=O)c1
11 | 113 to 115 °C | CC(C)(C)OC(=O)Nc1cc(Br)cc(C(F)(F)F)c1
12 | 139 °C | S=c1n(CN2CCCC2)nc(-c2ccncc2)n1-c1ccccc1
13 | > 250 °C | CC(C)n1nc(-c2c(Nc3ccccc3)nc(N)nc2-c2ccc(F)cc2)ccc1=O
14 | 160 to 161 °C | COC(=O)C(C)(C)c1ccc(Cl)c([N+](=O)[O-])c1
15 | 118 to 120 °C | CN1CCN(C2Cc3cc(Cl)ccc3Sc3ccc(F)cc32)CC1 (stereo not drawn)
16 | 85 °C | CN(CCOc1cccc(Cl)c1CN)Cc1ccccc1
17 | 158 to 160 °C | CCNC(=O)N1CCc2ccc(S(=O)(=O)NC(=O)NC3CCCCC3)cc2CC1
18 | 210 to 211 °C | NC(=O)N1C(=O)Cc2cc(C(=O)c3ccccc3)ccc21
19 | 133 to 136 °C | Fc1ccc2[nH]cc(CC3C=CCN(Cc4ccccc4)C3)c2c1 (stereo not drawn)

Row | melting point | Compound
20 | 93 to 95 °C | CCC(OC)(c1cncc(OCc2ccc3ccccc3c2)c1)c1nccs1 (stereo not drawn)
21 | 149 to 150 °C | CCC(OC)c1c(Br)c(Oc2ncnc3[nH]nnc23)c(OC)c(C)c1C(C)C (stereo not drawn)
22 | 255 to 256 °C | NC(=O)c1cc([N+](=O)[O-])c(Oc2ccccc2)c(S(N)(=O)=O)c1
23 | 93 to 96 °C | COC1=C(OC)C(=O)C2=C(CC(CCCCCCCCNC(C)=O)C2)C1=O
24 | 242 to 243 °C | COc1nc2cccnc2n(-c2ccc(Cl)cc2)c1=O
25 | 96 to 103 °C | CS(=O)(=O)c1ccc(-c2cnn(-c3ccccc3F)c(=O)c2-c2ccc(F)cc2)cc1
26 | 125 to 127 °C | COC(=O)CCCc1cc2cc(Cl)ccc2n1S(=O)(=O)c1c(C)nn(C)c1C
27 | 104 to 106 °C | CC(=O)Nc1ccc(OCCN(CC(=O)c2ccc(OCc3ccccc3)c(OCc3ccccc3)c2)Cc2ccccc2)cc1
28 | 69 to 71 °C | Cc1ccc([N+](=O)[O-])c(C)c1C1OCCO1
29 | 97 to 98 °C | CN(CCc1ccc([N+](=O)[O-])cc1)C1CCN(c2ccc([N+](=O)[O-])cc2)CC1
30 | 226 to 228 °C | COc1ccc(C(=O)N2c3ccccc3C(n3c4ccccc4c4ccccc43)CC2CCCCC(=O)O)cc1OC (stereo not drawn)
31 | 100 to 101 °C | Cc1cc(-c2ccccc2)c2ccccc2n1
32 | 209 to 211 °C | c1ccc2c(c1)[nH]c1nc(N3CCCC3)nc(N3CCCC3)c12
33 | 59 to 60 °C | CC(C)CNC(=O)C(C)(C)c1ccc(-c2cccn2C)cc1
34 | 131 to 133 °C | O=C(C=Cc1ccccc1C(F)(F)F)C=Cc1ccccc1C(F)(F)F
35 | 142 to 143 °C | CCOC(=O)c1c(OC(C)C)nc2cc(OC)c(OC)cc2c1-c1ccc(OC)c(OC)c1
36 | 248 to 249 °C | O=C(O)c1ccc(-c2ccccc2OC2OC(CO)C(O)C(O)C2O)cc1 (stereo not drawn)
37 | 242 °C | Cc1ccc(-c2cc(=S)ss2)nn1
38 | 226 to 227 °C | Cc1ccc(-c2c(C(=O)Nc3nccs3)nc(-c3cccc4ccccc34)n2CCN2CCOCC2)cc1
